Measurements published in patent US8921328B2, “E-selectin antagonists” (GlycoMimetics, Inc., priority 2010, dated 2014).

These compounds were tested against T1, E-selectin/IgG construct (Homo sapiens, UniProt P16581) (assay: BIAcore SPR ranking procedure at a single concentration (relative binding affinity)). Conditions: SPR signal at single concentration 0.05 μM divided by molecular weight, normalized to internal standard; KD larger than for reference compound 64, however below 135 nM; read-out: KD values (relative* binding affinities, ranking procedure).
T1 construct: fused on or other part: IgG Fc part (human, since it is captured by goat anti-human Fc antibody), fused on as a capture handle
T1 sequence (P16581 22-175 limits assumed): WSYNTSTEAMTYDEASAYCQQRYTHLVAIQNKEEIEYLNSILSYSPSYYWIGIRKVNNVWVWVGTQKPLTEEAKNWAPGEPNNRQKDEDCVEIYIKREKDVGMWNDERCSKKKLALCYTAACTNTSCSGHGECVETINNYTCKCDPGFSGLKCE
Description: (§1) The biological evaluation of the E-selectin antagonists was performed by surface plasmon resonance (SPR). For this purpose, an E-selectin/IgG construct was captured onto a BIAcore chip surface bearing covalently linked goat anti-human Fc specific antibody (Biacore Life Sciences, Uppsala, Sweden).
The ranking of the antagonists was performed in order to obtain qualitative information on the binding strength of twenty indole antagonists. For the ranking, SPR signals were recorded at a single concentration (0.05 μM) and divided by the molecular weight of the compounds. The result obtained was normalized to the response obtained with an internal standard (63) in order to avoid problems related to the measurement on different chips with different surfaces. DMSO calibration and double referencing were applied to correct bulk effects and other systematic artifacts (subtraction of reference surface and blank injection).
In the case of C[C@@H]1O[C@@H](O[C@@H]2[C@@H](C)C[C@@H](C(=O)NCc3cn(CCn4ccc5cc([N+](=O)[O-])ccc54)nn3)C[C@H]2O[C@@H]2O[C@H](CO)[C@H](O)[C@H](O[C@@H](CC3CCCCC3)C(=O)O)[C@H]2OC(=O)c2ccccc2)[C@@H](O)[C@H](O)[C@@H]1O [Product 57, (1R,3R,4R,5S)-3-[2-O-Benzoyl-3-O-((1S)-1-carboxy-2-cyclohexyl-ethyl)-(β-D-galactopyranosyl)oxy]-4-[(α-L-fucopyranosyl)oxy]-5-methyl-N-({1-[2-(5-nitro-1H-indol-1-yl)ethyl]-1H-1,2,3-triazol-4-yl}methyl)cyclohexanecarboxamide], the Kd is reported as > 0.089 µM.
In the case of C[C@@H]1O[C@@H](O[C@@H]2[C@@H](C)C[C@@H](C(=O)NCc3cn(CCCCn4ccc5cc([N+](=O)[O-])ccc54)nn3)C[C@H]2O[C@@H]2O[C@H](CO)[C@H](O)[C@H](O[C@@H](CC3CCCCC3)C(=O)O)[C@H]2OC(=O)c2ccccc2)[C@@H](O)[C@H](O)[C@@H]1O [Product 59, (1R,3R,4R,5S)-3-[2-O-Benzoyl-3-O-((1S)-1-carboxy-2-cyclohexyl-ethyl)-(β-D-galactopyranosyl)oxy]-4-[(α-L-fucopyranosyl)oxy]-5-methyl-N-({1-[4-(5-nitro-1H-indol-1-yl)butyl]-1H-1,2,3-triazol-4-yl}methyl)cyclohexanecarboxamide], the Kd is reported as > 0.089 µM.
C[C@@H]1O[C@@H](O[C@@H]2[C@@H](C)C[C@@H](C(=O)NCCc3cn(CCn4ccc5cc([N+](=O)[O-])ccc54)nn3)C[C@H]2O[C@@H]2O[C@H](CO)[C@H](O)[C@H](O[C@@H](CC3CCCCC3)C(=O)O)[C@H]2OC(=O)c2ccccc2)[C@@H](O)[C@H](O)[C@@H]1O [Product 61, (1R,3R,4R,5S)-3-[2-O-Benzoyl-3-O-((1S)-1-carboxy-2-cyclohexyl-ethyl)-(β-D-galactopyranosyl)oxy]-4-[(α-L-fucopyranosyl)oxy]-5-methyl-N-(2-{1-[2-(5-nitro-1H-indol-1-yl)ethyl]-1H-1,2,3-triazol-4-yl}ethyl)cyclohexanecarboxamide] was tested, and the Kd was > 0.089 µM.
C[C@@H]1O[C@@H](O[C@@H]2[C@@H](C)C[C@@H](C(=O)NCCc3cn(CCCn4ccc5cc([N+](=O)[O-])ccc54)nn3)C[C@H]2O[C@@H]2O[C@H](CO)[C@H](O)[C@H](O[C@@H](CC3CCCCC3)C(=O)O)[C@H]2OC(=O)c2ccccc2)[C@@H](O)[C@H](O)[C@@H]1O [Product 62, (1R,3R,4R,5S)-3-[2-O-Benzoyl-3-O-((1S)-1-carboxy-2-cyclohexyl-ethyl)-(β-D-galactopyranosyl)oxy]-4-[(α-L-fucopyranosyl)oxy]-5-methyl-N-(2-{1-[3-(5-nitro-1H-indol-1-yl)propyl]-1H-1,2,3-triazol-4-yl}ethyl)cyclohexanecarboxamide] was tested, and the Kd was > 0.089 µM.
In the case of C[C@@H]1O[C@@H](O[C@@H]2[C@@H](C)C[C@@H](C(=O)NCCCc3cn(CCn4ccc5cc([N+](=O)[O-])ccc54)nn3)C[C@H]2O[C@@H]2O[C@H](CO)[C@H](O)[C@H](O[C@@H](CC3CCCCC3)C(=O)O)[C@H]2OC(=O)c2ccccc2)[C@@H](O)[C@H](O)[C@@H]1O [Product 65, (1R,3R,4R,5S)-3-[2-O-Benzoyl-3-O-((1S)-1-carboxy-2-cyclohexyl-ethyl)-(β-D-galactopyranosyl)oxy]-4-[(α-L-fucopyranosyl)oxy]-5-methyl-N-(3-{1-[2-(5-nitro-1H-indol-1-yl)ethyl]-1H-1,2,3-triazol-4-yl}propyl)cyclohexanecarboxamide], the Kd is reported as > 0.089 µM.
With C[C@@H]1O[C@@H](O[C@@H]2[C@@H](C)C[C@@H](C(=O)NCCCc3cn(CCCCn4ccc5cc([N+](=O)[O-])ccc54)nn3)C[C@H]2O[C@@H]2O[C@H](CO)[C@H](O)[C@H](O[C@@H](CC3CCCCC3)C(=O)O)[C@H]2OC(=O)c2ccccc2)[C@@H](O)[C@H](O)[C@@H]1O [Product 67, (1R,3R,4R,5S)-3-[2-O-Benzoyl-3-O-((1S)-1-carboxy-2-cyclohexyl-ethyl)-(β-D-galactopyranosyl)oxy]-4-[(α-L-fucopyranosyl)oxy]-5-methyl-N-(3-{1-[4-(5-nitro-1H-indol-1-yl)butyl]-1H-1,2,3-triazol-4-yl}propyl)cyclohexanecarboxamide] the Kd was > 0.089 µM.
In the case of C[C@@H]1O[C@@H](O[C@@H]2[C@@H](C)C[C@@H](C(=O)NCCCc3cn(CCCn4ccc5cc(N)ccc54)nn3)C[C@H]2O[C@@H]2O[C@H](CO)[C@H](O)[C@H](O[C@@H](CC3CCCCC3)C(=O)O)[C@H]2OC(=O)c2ccccc2)[C@@H](O)[C@H](O)[C@@H]1O [Product 76, (1R,3R,4R,5S)—N-(3-{1-[3-(5-Amino-1H-indol-1-yl)propyl]-1H-1,2,3-triazol-4-yl}propyl)-3-[2-O-benzoyl-3-O-((1S)-1-carboxy-2-cyclohexyl-ethyl)-(β-D-galactopyranosyl)oxy]-4-[(α-L-fucopyranosyl)oxy]-5-methylcyclohexanecarboxamide], the Kd is reported as > 0.089 µM.
In the case of CC(=O)Nc1ccc2c(ccn2CCCn2cc(CCCNC(=O)[C@@H]3C[C@H](C)[C@@H](O[C@@H]4O[C@@H](C)[C@@H](O)[C@@H](O)[C@@H]4O)[C@H](O[C@@H]4O[C@H](CO)[C@H](O)[C@H](O[C@@H](CC5CCCCC5)C(=O)O)[C@H]4OC(=O)c4ccccc4)C3)nn2)c1 [Product 77, (1R,3R,4R,5S)—N-(3-{1-[3-(5-Acetamido-1H-indol-1-yl)propyl]-1H-1,2,3-triazol-4-yl}propyl)-3-[2-O-benzoyl-3-O-((1S)-1-carboxy-2-cyclohexyl-ethyl)-(β-D-galactopyranosyl)oxy]-4-[(α-L-fucopyranosyl)oxy]-5-methylcyclohexanecarboxamide], the Kd is reported as > 0.089 µM.
C[C@@H]1O[C@@H](O[C@@H]2[C@@H](C)C[C@@H](C(=O)NCCCc3cn(CCCn4ccc5cc(NC(=O)COCCOCCN)ccc54)nn3)C[C@H]2O[C@@H]2O[C@H](CO)[C@H](O)[C@H](O[C@@H](CC3CCCCC3)C(=O)O)[C@H]2OC(=O)c2ccccc2)[C@@H](O)[C@H](O)[C@@H]1O [Product 78, (1R,3R,4R,5S)—N-(3-{1-[3-(5-{2-[2-(2-Aminoethoxy)ethoxy]acetamido}-1H-indol-1-yl)propyl]-1H-1,2,3-triazol-4-yl}propyl)-3-[2-O-benzoyl-3-O-((1S)-1-carboxy-2-cyclohexyl-ethyl)-(β-D-galactopyranosyl)oxy]-4-[(α-L-fucopyranosyl)oxy]-5-methylcyclohexanecarboxamide] was tested, and the Kd was > 0.089 µM.

Each compound was assayed against T1, E-selectin/IgG construct (assay: BIAcore surface plasmon resonance (SPR)-based assay, serial dilutions of the ligand (absolute KD)). Conditions: twofold serial dilutions, 600 s association/600 s dissociation, HBS-P + 20 mm calcium + DMSO 5% v/v, read-out: KD values (absolute binding affinities).
Description: as §1
Evaluation of E-Selectin Antagonists with Surface Plasmon Resonance (SPR)-Based Assay
Ten twofold serial dilutions of the ligand were non-randomly injected. The E-selectin antagonists were diluted in running buffer (HBS-P supplemented with […] calcium and DMSO 5% v/v). Antagonist dilutions were injected with a 600 s association time and 600 s dissociation time at a flow rate of 20 μL/min over the reference and the active flow cell. […] In addition, to prevent the presence of residual traces of compound, a blank injection was performed between each injection of ligand dilution. DMSO calibration and double referencing were applied to correct bulk effects and other systematic artifacts (subtraction of reference surface and blank injection).
C[C@@H]1O[C@@H](O[C@@H]2[C@@H](C)C[C@@H](C(=O)NCc3cn(CCCn4ccc5cc([N+](=O)[O-])ccc54)nn3)C[C@H]2O[C@@H]2O[C@H](CO)[C@H](O)[C@H](O[C@@H](CC3CCCCC3)C(=O)O)[C@H]2OC(=O)c2ccccc2)[C@@H](O)[C@H](O)[C@@H]1O [Product 58, (1R,3R,4R,5S)-3-[2-O-Benzoyl-3-O-((1S)-1-carboxy-2-cyclohexyl-ethyl)-(β-D-galactopyranosyl)oxy]-4-[(α-L-fucopyranosyl)oxy]-5-methyl-N-({1-[3-(5-nitro-1H-indol-1-yl)propyl]-1H-1,2,3-triazol-4-yl}methyl)cyclohexanecarboxamide] showed a Kd of 0.057 µM.
For C[C@@H]1O[C@@H](O[C@@H]2[C@@H](C)C[C@@H](C(=O)NCCc3cn(CCCCn4ccc5cc([N+](=O)[O-])ccc54)nn3)C[C@H]2O[C@@H]2O[C@H](CO)[C@H](O)[C@H](O[C@@H](CC3CCCCC3)C(=O)O)[C@H]2OC(=O)c2ccccc2)[C@@H](O)[C@H](O)[C@@H]1O [Product 63, (1R,3R,4R,5S)-3-[2-O-Benzoyl-3-O-((1S)-1-carboxy-2-cyclohexyl-ethyl)-(β-D-galactopyranosyl)oxy]-4-[(α-L-fucopyranosyl)oxy]-5-methyl-N-(2-{1-[4-(5-nitro-1H-indol-1-yl)butyl]-1H-1,2,3-triazol-4-yl}ethyl)cyclohexanecarboxamide], the Kd was 0.049 µM.
Work on C[C@@H]1O[C@@H](O[C@@H]2[C@@H](C)C[C@@H](C(=O)NCCCc3cn(CCCn4ccc5cc([N+](=O)[O-])ccc54)nn3)C[C@H]2O[C@@H]2O[C@H](CO)[C@H](O)[C@H](O[C@@H](CC3CCCCC3)C(=O)O)[C@H]2OC(=O)c2ccccc2)[C@@H](O)[C@H](O)[C@@H]1O [Product 66, (1R,3R,4R,5S)-3-[2-O-Benzoyl-3-O-((1S)-1-carboxy-2-cyclohexyl-ethyl)-(β-D-galactopyranosyl)oxy]-4-[(α-L-fucopyranosyl)oxy]-5-methyl-N-(3-{1-[3-(5-nitro-1H-indol-1-yl)propyl]-1H-1,2,3-triazol-4-yl}propyl)cyclohexanecarboxamide] yielded a Kd of 0.03 µM.
